Assay results from patent publication US20080194585A1, “Fungicidal Pyrazine Derivatives” (priority 2005, published 2008).
Marks after values point to notes of the source that are not given here.

Columns and labels:
Plasmopara viticola = assay: Test D: grape downy mildew, spray after inoculation of grape seedlings; format: in vivo
Excerpt: Upon removal, disease ratings were made. […] A dash (-) indicates no test results.

fusarium graminearium = assay: Test I: wheat head scab, preventive spray on wheat seedlings
Description: (the causal agent of wheat head scab) and incubated in a saturated atmosphere at 20° C. for 72 h, and then moved to a growth chamber at 22° C. for 5 days, after which disease ratings were made.

Phytophthora infestans = assay: whole plant or invertebrate; format: in vivo
Botrytis cinerea = assay: Test E: tomato botrytis, preventive spray on tomato seedlings
[1] = tested on: Erysiphe graminis f. sp. tritici; assay: Test L: wheat powdery mildew, preventive spray on wheat seedlings
Septoria nodorum = assay: Test H: wheat glum blotch, preventive spray on wheat seedlings
Description: (the causal agent of wheat glum blotch) and incubated in a saturated atmosphere at 20° C. for 48 h, and then moved to a growth chamber at 22° C. for 5 days, after which disease ratings were made.

[2] = tested on: Colletotrichum orbiculare; assay: Test B: cucumber Colletotrichum anthracnose, preventive spray on cucumber seedlings; conditions: for Test B disease control rating: 40 ppm (marked *), 100 = 100% disease control, 0 = no control
Septoria tritici = assay: Test J: wheat leaf blotch, preventive spray on wheat seedlings; format: in vivo
Excerpt: A dash (-) indicates no test results.

Pythium aphanidermatum = assay: Test A: bluegrass pythium blight, preventive spray on bluegrass seedlings
Rhizoctonia oryzae = assay: Test G: turf brown patch, preventive spray on creeping bent grass seedlings
Description: (the causal agent of turf brown patch) and incubated in a saturated atmosphere at 27° C. for 24 h, and then moved to a growth chamber at 27° C. for 5 days, after which disease ratings were made.

[3] = tested on: Puccinia recondita f. sp. tritici; assay: Test K: wheat leaf rust, preventive spray on wheat seedlings
[4] = 40 ppm (marked *), 100 = 100% disease control, 0 = no control
[5] = 200 ppm, 100 = 100% disease control, 0 = no control relative to controls

SMILES	Test L disease control rating [1, 4]	Test H disease control rating (Septoria nodorum; [4])	Test B disease control rating [2]	Test J disease control rating (Septoria tritici; [4])	Test G disease control rating (Rhizoctonia oryzae; [4])	Test K disease control rating [3, 4]	Test I disease control rating (fusarium graminearium; [5]) [%]	Test F disease control rating (Phytophthora infestans; [5]) [%]	Test E disease control rating (Botrytis cinerea; [4])	Test A disease control rating (Pythium aphanidermatum; [5]) [%]	other results
CC(C)Cn1c(-c2c(F)cccc2F)c(Br)nc(-n2cccn2)c1=O [Compound 99, 5-Bromo-6-(2,6-difluorophenyl)-1-(2-methylpropyl)-3-(1H-pyrazol-1-yl)-2(1H)-pyrazinone]	–	–	–	–	–	–	–	–	–	–	pest or weed control at 200 ppm (Plasmopara viticola; Plasmopara viticola, 168 h, 200 ppm, read-out: Test D disease control rating): 0%; pest or weed control at 200 ppm (fusarium graminearium; Fusarium, in Triticum aestivum, topical, 192 h, read-out: Test I disease control rating, 200 ppm): 0%; pest or weed control at 200 ppm (Phytophthora infestans; Phytophthora infestans, in Solanum lycopersicum, topical, 144 h, read-out: Test F disease control rating): 0%; pest or weed control at 200 ppm (Botrytis cinerea; Botrytis cinerea, in Solanum lycopersicum, topical, 72 h, read-out: Test E disease control rating): 100%; pest or weed control at 200 ppm ([1]; Blumeria graminis, in Triticum aestivum, 168 h, read-out: Test L disease control rating, 200 ppm): 100%; pest or weed control at 200 ppm (Septoria nodorum; Parastagonospora nodorum, in Triticum aestivum, topical, 168 h, read-out: Test H disease control rating, 200 ppm): 100%; pest or weed control at 200 ppm ([2]; Colletotrichum orbiculare, in Cucumis sativus, 144 h, read-out: Test B disease control rating, 200 ppm): 99%; pest or weed control at 200 ppm (Septoria tritici; Zymoseptoria tritici, 528 h, 200 ppm, read-out: Test J disease control rating): 100%; pest or weed control at 200 ppm (Pythium aphanidermatum; Pythium aphanidermatum, 120 h, read-out: Test A disease control rating): 0%; pest or weed control at 200 ppm (Rhizoctonia oryzae; Waitea circinata, in Agrostis stolonifera, topical, 144 h, read-out: Test G disease control rating, 200 ppm): 82%; pest or weed control at 200 ppm ([3]; Puccinia recondita, in Triticum aestivum, 192 h, read-out: Test K disease control rating): 100%
CC(C)(C)Cn1c(-c2c(F)cccc2F)c(Cl)nc(-n2cccn2)c1=O [compound 59]	–	–	–	–	–	–	–	–	–	–	Test D disease control rating (Plasmopara viticola; 200 ppm): 0%; Test I disease control rating (fusarium graminearium; 200 ppm): 0%; Test F disease control rating (Phytophthora infestans; 200 ppm): 0%; Test E disease control rating (Botrytis cinerea; 40 ppm (*)): 100* %; Test L disease control rating ([1]; 40 ppm (*)): 98* %; Test H disease control rating (Septoria nodorum; 40 ppm (*)): 73* %; Test J disease control rating (Septoria tritici; 40 ppm (*)): 100* %; Test A disease control rating (Pythium aphanidermatum; 200 ppm): 0%; Test G disease control rating (Rhizoctonia oryzae; 40 ppm (*)): 49* %; Test K disease control rating ([3]; 40 ppm (*)): 94* %
O=c1c(-n2cccn2)nc(Cl)c(-c2c(F)cccc2F)n1-c1ccccc1F [compound 339]	0* %	99* %	0* %	100* %	0* %	89* %	–	–	–	–	Test D disease control rating (Plasmopara viticola; [4]): 0* %; Test I disease control rating (fusarium graminearium; [4]): 0* %; Test F disease control rating (Phytophthora infestans; [4]): 0* %; Test A disease control rating (Pythium aphanidermatum; [4]): 0* %
Cc1ccn(-c2nc(Cl)c(-c3c(F)cccc3F)n(-c3ccccc3F)c2=O)n1 [compound 340]	0* %	99* %	0* %	95* %	0* %	95* %	–	–	–	–	Test D disease control rating (Plasmopara viticola; [4]): 0* %; Test I disease control rating (fusarium graminearium; [4]): 0* %; Test F disease control rating (Phytophthora infestans; [4]): 0* %; Test A disease control rating (Pythium aphanidermatum; [4]): 0* %
Cc1ccn(-c2nc(Cl)c(-c3c(F)cccc3F)n(Cc3ccc(F)cc3)c2=O)n1 [compound 341]	63* %	99* %	52* %	98* %	0* %	100* %	–	–	–	–	Test D disease control rating (Plasmopara viticola; [4]): 79* %; Test I disease control rating (fusarium graminearium; [4]): 0* %; Test F disease control rating (Phytophthora infestans; [4]): 0* %; Test A disease control rating (Pythium aphanidermatum; [4]): 0* %
COc1ccccc1-n1c(-c2c(F)cccc2F)c(Cl)nc(-n2cccn2)c1=O [compound 393]	0* %	73* %	41* %	33* %	0* %	89* %	0	0	29* %	0	–
COc1cccc(-n2c(-c3c(F)cccc3F)c(Cl)nc(-n3cccn3)c2=O)c1 [compound 394]	99* %	100* %	99* %	100* %	47* %	100* %	78	0	99* %	0	–
COc1ccc(-n2c(-c3c(F)cccc3F)c(Cl)nc(-n3cccn3)c2=O)cc1 [compound 395]	0* %	95* %	57* %	99* %	0* %	99* %	0	0	80* %	0	–
O=c1c(-n2cccn2)nc(Cl)c(-c2c(F)cccc2F)n1-c1ccccc1OC(F)(F)F [compound 396]	91* %	89* %	13* %	85* %	0* %	94* %	0	0	70* %	0	–
O=c1c(-n2cccn2)nc(Cl)c(-c2c(F)cccc2F)n1-c1ccccc1OC(F)(F)F [compound 397]	0* %	94* %	37* %	94* %	0* %	80* %	0	0	99* %	0	–
O=c1c(-n2cccn2)nc(Cl)c(-c2c(F)cccc2F)n1-c1ccc(OC(F)(F)F)cc1 [compound 398]	78* %	75* %	56* %	97* %	24* %	97* %	0	0	98* %	0	–
O=c1c(-n2cccn2)nc(Cl)c(-c2c(F)cccc2F)n1-c1ccccc1C(F)(F)F [compound 399]	93* %	90* %	88* %	100* %	24* %	99* %	0	0	97* %	0	–
